Legend:
[1] = tested on: mice following controlled cortical impact injury (CCI); test: Beam walking task after controlled cortical impact injury (chronic neurological recovery); type: in vivo, Male C57Bl/6 mice; details: 1 mg/kg following CCI injury; small group size (n=6)
Experimental: Male C57Bl/6 mice (20-25 g) were obtained from Taconic Farms (Germantown, N.Y.) and housed in an area directly adjoining surgical and behavioral rooms for at least 1 week prior to any procedures. All mice were maintained at a constant temperature (22±2° C.) and a 12 hr light/dark cycle, with lights on at 6 am and all behavioral testing performed during the light cycle. Food and water were available ad libitumn.
The injury device consisted of a microprocessor-controlled pneumatic impactor with a 3.5 mm diameter tip. The impactor is vertically mounted on a mill table (Sherline, USA) which allows for precise adjustment in the vertical plane above the mouse head, which itself is secured to a stereotaxic apparatus (David Kopf Instruments, CA) attached to the instrument. The core rod of a linear voltage differential transducer (LVDT, Serotec, USA) is attached to the lower end of the impactor to allow measurement of velocities between 3.0 and 9.0 m/s. Velocity of the impactor is controlled by fine tuning both positive and negative (back) air pressures. An oscilloscope (Tektronix, USA) records the time/displacement curve produced by the downward force on the LVDT, allowing precise measurement of the impactor velocity.
Surgical anesthesia was induced and maintained with 4% and 2% isoflurane respectively, using a flow rate of 1.0-1.5 l oxygen per minute. Depth of anesthesia was assessed by monitoring respiration rate and palpebral and pedal-withdrawal reflexes. The animal was then placed onto a heated pad and core body temperature was monitored and maintained at 38+/−0.2° C. The head was mounted in a stereotaxic frame and the surgical site clipped and prepared with a series of three Nolvasan scrubs followed by sterile saline rinses. A 10 mm mid-line incision was made over the skull, the skin and fascia reflected, and a 4 mm craniotomy made on the central aspect of the left parietal bone with a tissue punch (Roboz, USA). Great care was taken with the removal of the parietal bone to avoid injury to the underlying dura mater which was continuously bathed in sterile normal saline warmed to 37.5° C. The impounder tip of the pneumatic injury device was cleaned with a pad, soaked in absolute alcohol, positioned to the surface of the exposed dura and automatically withdrawn the 44 mm stroke distance. Following injury at a moderate (6.0 m/s velocity, 1 mm tissue deformation depth) level, the incision was closed with interrupted 6-0 silk sutures, anaesthesia was discontinued and the mouse was placed into a heated cage to maintain normothermia for 45 minutes post-injury. All animals were monitored carefully for at least 4 hours post-surgery and then daily. To minimize variation between animals due to anaesthesia during acute neurological testing, 20 minutes was allowed for surgery and 5 minutes for suturing for each animal.
Conscious mice were placed in a mouse restrainer and injected via the lateral tail vein with either normal saline (injured controls; n=6), 1 mg/kg Compound 2a (n=8), Compound 10b (n=6), Compound 11b (n=6) or Compound 14c (n=6) at 30 minutes following controlled cortical impact injury (CCI). The values for n represents the number of mice in the particular treatment group. The investigator was blinded to drug treatment both at the time of surgery and for neurological and behavioral scoring.
Chronic neurological recovery was evaluated for all animals using a beam walking task, a method which is particularly good at discriminating fine motor coordination differences between injured and sham-operated animals. The device consisted of a narrow wooden beam 6 mm wide and 120 mm in length which was suspended 300 mm above a 60 mm-thick foam rubber pad. The mouse was placed on one end of the beam and the number of footfaults for the right hindlimb recorded over 50 steps counted in either direction on the beam. A basal level of competence at this task was established before surgery with an acceptance level of <10 faults per 50 steps. […]

[2] = tested on: traumatic spinal cord injury; details: in vivo; cited from earlier work
[3] = tested on: rats following moderate fluid percussion injury; test: Mortality after moderate fluid percussion injury; type: in vivo, Male Sprague-Dawley rats; details: 1 mg/kg i.v. 30 min following moderate fluid percussion injury; died before the end of the study; saline 21.4% and 37.5%
Experimental: Rats were anesthetized with sodium pentobarbital (70 mg/kg i.p.), intubated, and implanted with femoral venous and arterial catheters. Brain temperature was assessed indirectly through a thermister in the temporalis muscle. Body temperature was maintained through a feedback-controlled heating blanket. Blood pressure was continuously monitored, and arterial blood gases analyzed periodically. After the animal was placed in a stereotaxic frame, the scalp and temporal muscle were reflected, and a small craniotomy (5 mm) located midway between the lambda and bregma sutures over the left parietal cortex allowed insertion of a Leur-Loc that is cemented in place. The fluid-percussion head injury device, manufactured by the Medical College of Virginia, consists of a plexiglass cylindrical reservoir filled with isotonic saline; one end includes a transducer that is mounted and connected to a 5 mm tube that attaches through a male Leur-Loc fitting to the female Leur-Loc cemented at the time of surgery. A pendulum strikes a piston at the opposite end of the device, producing a pressure pulse of approximately 22 msec duration, leading to deformation of underlying brain. The degree of injury is related to the pressure pulse, expressed in atmospheres (atm): 2.6 atm in our laboratory produces a moderate injury with regard to neurological and histological deficit. Sham (control) animals undergo anesthesia and surgery without fluid percussion brain injury. […]
(§1) Continuous variables compared across groups were examined using an analysis of variance (ANOVA) followed by Bonferroni correction (rightin reflex). Continuous variables subjected to repeated measurements over a period of time (cardiovascular and core temperature measurements) were analyzed using a repeated measurements ANOVA followed by Tukey's pairwise comparison at each time point. Ordinal measurements (composite neurological scores) were evaluated using the non-parametric Kruskal-Wallis ANOVA with individual, non-parametric Mann-Whitney U-tests. […]

[4] = tested on: lightly anesthetized rats; test: Core body temperature in lightly anesthetized uninjured rats (analeptic study); type: in vivo; details: 1 mg/kg i.v.; over 60 min following anesthesia; p<0.001 vs all other groups at 20-60 min
Experimental: (§2) Additional groups of uninjured rats were tested for autonomic and analeptic responses immediately prior to and up to 60 min. following drug administration. For the analeptic study, rats were first anesthetized with 40 mg/kg i.p. sodium pentabarbitone and placed onto an unheated pad on the laboratory bechtop at room temperature (22±2° C.). A thermister probe was placed in the rectum to measure core body temperature. After a 10 min. period, rats were administered vehicle or drug as described below via the tail vein. Time to recovery of the righting-reflex was subsequently determined while temperature was recorded at 5 min. intervals for all animals. […]
as §1

[5] = tested on: lightly anesthetized rats; test: Latency to recover righting reflex after light anesthesia (analeptic study); type: in vivo; details: i.v., doses of 1 mg/kg and 10 mg/kg (FIG. 11); after 40 mg/kg i.p. sodium pentobarbitone
Experimental: as §2, §1

[6] = tested on: fully conscious and unrestrained rats; test: Mean arterial blood pressure in conscious unrestrained rats (autonomic study); type: in vivo; details: 1 mg/kg i.v., over the duration of testing
Source text: To assess autonomic responses to the novel TRH analogues, a separate group of rats were anesthetized with 4% isoflurane (1.5 L/min). Catheters were then placed into the right artoid artery and right jugular vein and exteriorized at the back of the neck. Rats were separated one per cage and allowed to recover from anesthesia. The exteriorized catheters were suspended above the rat to prevent biting. Mean […] blood pressure (MAP) was continuously recorded via a transducer connected directly to the arterial catheter for the duration of the study. At 1 h following catheter placement, rats were administered vehicle or drug via the catheter in the jugular vein as described below. […]
as §1

[7] = tested on: central facilitating activity; details: cited from earlier work
rats following trauma = details: cited from earlier work
[8] = in vivo; cited from earlier work
[9] = tested on: traumatic spinal cord injury in cats; details: cited from earlier work
[10] = tested on: cats subjected to brainstem compression; details: cited from earlier work
[11] = tested on: head impact trauma in mice; details: cited from earlier work

NC(=O)[C@@H]1CCCN1C(=O)C1(NC(=O)[C@@H]2CC(=O)N2)CC1 [Compound 10b, N^1-[1-[N—[(S)-4-Oxo-Azetidine-2-Carbonyl]Amino]Cyclopropane-Carbonyl]Prolinamide]
performance deficits in the beamwalking task compared with saline vehicle [1]: attenuated

CC1(C)CCN(C(=O)[C@H](Cc2cnc[nH]2)NC(=O)[C@@H]2CCC(=O)N2)[C@@H]1C(N)=O [RX-77368]
outcome following traumatic spinal cord injury [2]: ineffective

C[C@H]1SC[C@@H](C(=O)N[C@H](Cc2c[nH]cn2)C(=O)N2CCC[C@H]2C(N)=O)NC1=O [CG3703]
outcome following traumatic spinal cord injury [2]: improve outcome

CC(C)(C)SC[C@@H]1NC(=O)[C@@H]2CCCN2C1=O [Compound 4a, Cyclo(t-Butyl-Cys-Pro)]
mortality rate [3]: 0%

NC(=O)[C@H]1CSCN1C(=O)[C@H](Cc1cnc[nH]1)NC(=O)[C@@H]1CCCC(=O)N1 [MK-771]
outcome following traumatic spinal cord injury [2]: ineffective

NC(=O)[C@@H]1CCCN1C(=O)C1(NC(=O)[C@@H]2CC(=O)N2)CCCCC1 [Compound 11b]
performance deficits in the beamwalking task compared with saline vehicle [1]: attenuated

NC(=O)[C@@H]1CCCN1C(=O)[C@H](Cc1cnc[nH]1)NC(=O)[C@@H]1CC(=O)N1 [YM-14673, N^α-[(S)-4-Oxo-Azetidine-2-Carbonyl]-L-Histidyl-L-Prolinamide]
core temperature maintained [4]: 37-38 °C
latency to recovery of righting reflex compared with saline [5]: significantly attenuated
mean arterial blood pressure (MAP) compared with vehicle / other groups [6]: significantly higher MAP
duration of action relative to TRH (longer acting) [7]: 8-36 times
potency relative to TRH [7]: 10-100 times
chronic neurological recovery following trauma (rats following trauma): improved chronic neurological recovery

NC(=O)[C@@H]1CCCN1C(=O)[C@H](Cc1cnc[nH]1)NC(=O)[C@@H]1CCC(=O)N1 [TRH, L-pyroglutamyl-L-histidyl-L-prolinamide]
plasma half-life [8]: 4 to 5 min
neurological deficits after traumatic spinal cord injury [9]: reduces neurological deficits
electrical activity and neurological recovery after brainstem compression [10]: improve electrical activity and neurological recovery
postconcussional behavioral suppression following head impact trauma [11]: shorten postconcussional behavioral suppression

NC(=O)[C@@H]1CCCN1C(=O)[C@H](Cc1cnc[nH]1)NC(=O)c1cc(=O)[nH]c(=O)[nH]1 [CG3509]
outcome following traumatic spinal cord injury [2]: improve outcome

O=C1NC2(CC2)C(=O)N2CCC[C@@H]12 [Compound 1a, Cyclo [(1-Amino-1-Cyclopropane-Carboxylic Acid)-Pro]]
mortality rate [3]: 28.6%
